Data as given in patent US9006452B2, “Method for imaging zinc activation within a mitochondrion using a two-photon fluorescent probe, and method for manufacturing the two-photon fluorescent probe” (AJOU University Industry-Academic Cooperation Foundation, priority 2011, dated 2015).

Tests used:
HeLa cells [1] = experiment: Toxicity test using a CCK-8 kit; format: cell-based
Excerpt: In order to confirm whether the two-photon fluorescent probe of the present invention can detect intracellular zinc ions, the effect of the two-photon fluorescent probe (SZn-Mito) on the cells was examined by the following toxicity test.

[2] = test system: zinc ions within the mitochondria of HeLa cells; experiment: Two-photon microscopy monitoring of zinc ion changes in living HeLa cells; format: cell-based
Procedure: TPEF images were collected at a range from 425-575 nm (fs pulses, 760 nm excitation conditions);
When DTDP (2,2′-dithiodipyridine; […]), reagent capable of inducing dissociation of Zn^2+ ions from Zn^2+-binding proteins, was added to the HeLa cells labeled with the two-photon fluorescent probe (SZn-Mito), the TPEF intensity was increased. When CCCP (carbonyl cyanide m-chlorophenylhydrazone; […]), a compound capable of disrupting a transmembrane potential difference of the mitochondria and increasing the release of cations within the mitochondria, was added thereto, the TPEF intensity was decreased. Also, when the HeLa cells were treated with […] (2-mercaptopyridine N-oxide), a reagent capable of delivering Zn^2+ to the cytoplasm, the TPEF intensity was increased, and when they were treated with CCCP, the TPEF intensity was decreased (FIG. 1).

[3] = Effect of pH on one-photon fluorescence intensity; format: physicochemical; details: physiological pH; absence and presence of free Zn2+
[4] = Selectivity for metal cations in MOPS buffer; format: physicochemical; details: MOPS buffer pH 7.2, 1.0 μM probe
Procedure: The selectivity for metal cations was determined by using the MOPS buffer (30 mM MOPS, 100 mM KCl, 10 mM EGTA, pH 7.2) including the two-photon fluorescent probe. […] However, because there are very little metal ions such as Co^2+, Ni^2+ and Cu^2+ inside the cells, the two-photon fluorescent probe of the present invention has an advantage that it can detect zinc ions (Zn^2+) without the interference caused by competition with other metal ions.

[5] = Optical and physical properties of the two-photon fluorescent probe in MOPS buffer; format: physicochemical; details: absence of Zn2+
Procedure: In order to investigate optical and physical properties of the two-photon fluorescent probe (SZn-Mito), the following experiment was carried out by using a MOPS (3-(N-morpholino)propane sulfonic acid) buffer.
(§1) It was predicted as a result of blocking the photo-induced electron transfer (PeT) process caused by complexation with metal ions.

HeLa cells [6] = experiment: Light stability of TPEF intensity in labeled HeLa cells; format: cell-based; details: exposure 60 min
[7] = One- and two-photon fluorescence titration with free Zn2+ (dissociation constant, fluorescence enhancement factor); format: binding
Procedure: as §1
As a result of measuring a fluorescence increase factor (FEF=(F−Fmin)/Fmin) value of the two-photon fluorescent probe (SZn-Mito) by one- and two-photon processes, the FEF value was represented as 7 in the presence of excessive zinc ions (Table 1).
MOPS (4-morpholinepropanesulfonic acid) buffers (30 mM, pH 7.2, 0.1 M KCl) including varying amounts of ZnSO4 and 10 mM EGTA (ethylene glycol-bis(2-aminoethylether)-N,N,N′,N′-tetraacetic acid) were prepared.
The concentration of free Zn^2+ ([Zn^2+]free) was calculated from KZn-EGTA^app,[EGTA] total, and [Zn^2+]total by using following Equation 1:
After that, the stability constant of a Zn^2+ complex of EGTA (KZn-EGTA) was obtained by a conventional method known in the art. As a result, for EGTA (pH 7.2, 0.1 M KCl, 25[…]), pK1=9.40, pK2=8.79, pK3=2.70, and log KZn-EGTA=12.6 were obtained.
All protonation constants at 0.1 M ion strength workout were corrected upward by 0.11, [EGTA]total was fixed at 10 mM, and [Zn^2+]total was in the range from 0 to 9.5 mM.
In order to clearly determine a dissociation constant of the two-photon fluorescent probe, FIG. 2c as a fluorescence titration curve was obtained from FIG. 2b by using following Equation 2.
wherein F is a fluorescence intensity. Fmax is a maximum fluorescence intensity, Fo is a fluorescence intensity in the absence of Zn^2+, and [Zn^2+]free is a concentration of free Zn^2+.
Kd values that well complies with the titration curve (FIG. 2c) according to Equation 2 were calculated by using a commercial Origin software. […] A two-photon excitation fluorescence titration curve was obtained, which was fitted to Equation 2 (FIGS. 2c and 2d).

reaction to pH (fluorescence intensity) [3]: unreacted at physiological pH
λmax(1), one-photon absorption spectra ([5]; 30 mM MOPS, 100 mM KCl, 10 mM EGTA, pH 7.2): 388 nm
λmax fl, one-photon emission spectra ([5]; MOPS buffer pH 7.2): 500 nm
10^−4 ε, molar excitation coefficient ([5]; MOPS buffer pH 7.2, value is 10^−4 ε): 1.87 M^−1cm^−1
F, fluorescence quantum yield ([5]; MOPS buffer pH 7.2, ±15%): 0.15
change of TPEF intensity under continuous fs-pulse radiation (light stability) (HeLa cells [6]): not decreased at all
SMILES: CN(CC(=O)NCC[P+](c1ccccc1)(c1ccccc1)c1ccccc1)c1ccc2cc(-c3nc4ccc(NCCN(Cc5ccccn5)Cc5ccccn5)cc4s3)ccc2c1 [SZn-Mito]
toxicity to cells (CCK-8 kit) (HeLa cells [1]): negligible and extremely low toxicity
TPEF intensity after treatment with Zn2+ and pyrithione ([2]; HeLa cells, 100 mM Zn2+ and 100 mM pyrithione): increased
TPEF intensity after addition of CCCP ([2]; labeled HeLa cells after DTDP, CCCP 10 mM): decreased
TPEF intensity after addition of DTDP ([2]; labeled HeLa cells, DTDP 150 mM): increased
fluorescence in the presence of Co2+, Ni2+ and Cu2+ [4]: fluorescence was decreased
selectivity for Cd2+ [4]: relatively high selectivity for Cd^2+
selectivity for Zn2+ compared with Na+, K+, Ca2+, Mg2+, Mn2+, Fe2+ and Fe3+ [4]: higher selectivity for Zn^2+
detection limit for Zn2+ ([7]; from fluorescence titration): nM range
FEF, fluorescence enhancement factor (F−Fmin)/Fmin, one-photon process ([7]; one-photon, presence of excessive zinc ions): 7
FEF, fluorescence enhancement factor (F−Fmin)/Fmin, two-photon process ([7]; two-photon, presence of excessive zinc ions): 7
